Results on eight molecules are retold here after patent US9144239B2, “Macrocyclic picolinamides as fungicides” (DOW AGROSCIENCES LLC, priority 2012, dated 2015).

Assay type in all cases: in vivo
Assay [1] concerns Puccinia triticina; synonym: Puccinia recondita f. sp. tritici. In words: Fungicidal activity: wheat brown rust (PUCCRT), wheat seedlings. The essentials:
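Wheat (Yuma) seedlings at first-leaf stage, inoculated with Puccinia triticina spores before or after treatment, held overnight in dark dew room at 22° C, 100% RH, then greenhouse at 24° C. Acetone solutions diluted with nine volumes water containing 110 ppm Triton X-100, sprayed to run-off. Percent disease control derived from severity (0–100%) relative to untreated plants.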

For assay [2] the test system is unchanged. In words: Fungicide mobility (dropline mobility test): wheat brown rust (PUCCRT). The note with it: 1 ug/leaf. The procedure: Evaluation of Fungicide Mobility: Wheat Brown Rust (Puccinia triticina; Synonym: Puccinia recondita f. sp. tritici; Bayer Code PUCCRT) “Yuma” wheat seedlings were used in the test. One mg of compound was dissolved in 9 μl of EC blank (emulsifiable concentrate) and 500 μl of acetone. Acetone was then evaporated overnight by leaving the vial open in a fume hood. Two milliliters of water containing 110 ppm Triton X-100 was added to each vial to prepare application solutions. A 2 μl drop of formulated material was applied to a marked line on the adaxial surface 5 cm from the leaf tip of the primary leaves. The primary leaves were kept in a horizontal position. Each treatment had 6 replicates. Plants were inoculated with PUCCRT 1-day after (1DPM) or 3-day prior to (3DCM) compound applications. When rust was fully expressed on primary leaves on control plants, the zone of treated leaves that was disease-free in the acropetal direction was measured with a ruler and converted to percent of the distance from marked line to leaf tip.

Assay [3] relates to Mycosphaerella graminicola; anamorph: Septoria tritici. In words: Fungicidal activity: leaf blotch of wheat (SEPTTR), wheat seedlings. The note with it: Zymoseptoria tritici. The essentials:
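Percent control derives from disease severity on treated versus untreated first leaves, rated 0–100% when symptoms were fully expressed on untreated plants. Yuma seedlings were inoculated with S. tritici spores either before or after spraying to run-off. The spray was acetone solution diluted 1:9 in water with 110 ppm Triton X-100. Infection took place in 100% RH dew chambers, then a 20 °C greenhouse.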

Where [4] appears, read: 24 h, 100 ppm, 1 Day Protectant, wheat, read-out: Disease Control PUCCRT 1DP.
The mark [5] stands for this setting: 72 h, 100 ppm, 3 Day Curative, wheat, read-out: Disease Control PUCCRT 3DC.
The mark [6] stands for this setting: 24 h, 1 Day Protectant Mobility, read-out: Dropline Mobility Test PUCCRT 1DPM.
The mark [7] stands for this setting: 72 h, 3 Day Curative Mobility, read-out: Dropline Mobility Test PUCCRT 3DCM.
The mark [8] stands for this setting: 24 h, 100 ppm, 1 Day Protectant, wheat, read-out: Disease Control SEPTTR 1DP.
The mark [9] stands for this setting: 72 h, 100 ppm, 3 Day Curative, wheat, read-out: Disease Control SEPTTR 3DC.

Where two headings read alike, the source gives them in different places.

As for `CCCO[C@H]1[C@H](C)OC(=O)[C@@H](NC(=O)c2nccc(OC)c2OCOC(C)=O)COC[C@@H]1OCCC` [Compound 61], the pest or weed control at 100 ppm in assay [1] (setting [4]), in assay [1] (setting [5]), in assay [3] (setting [8]) and in assay [3] (setting [9]) was 80 to 100% in each case. In addition, the pest or weed control at 1 µg/leaf in assay [2] (setting [6]) lay in the range of 80 to 100%; in assay [2] (setting [7]), 0 to 80%.
In the case of `COc1ccnc(C(=O)N[C@H]2COC[C@H](Oc3ccccc3)[C@@H](Oc3ccccc3)[C@H](C)OC2=O)c1O` [Compound 81, 3-hydroxy-4-methoxy-N-((3S,7S,8S,9S)-9-methyl-2-oxo-7,8-diphenoxy-1,5-dioxonan-3-yl)picolinamide], the pest or weed control at 100 ppm was 80 to 100% in assay [1] (24 h, read-out: Disease Control PUCCRT 1DP); 80 to 100% in assay [1] (72 h, read-out: Disease Control PUCCRT 3DC); 80 to 100% in assay [3] (24 h, read-out: Disease Control SEPTTR 1DP); 80 to 100% in assay [3] (72 h, read-out: Disease Control SEPTTR 3DC). Also, the pest or weed control at 1 µg/leaf fell in the range of 80 to 100% in assay [2] (setting [6]) and 0 to 80% in assay [2] (setting [7]).
With `COc1ccnc(C(=O)N[C@H]2COC[C@H](Oc3ccccc3)[C@@H](Oc3ccccc3)[C@H](C)OC2=O)c1OCOC(=O)C(C)C` [Compound 234], the pest or weed control at 100 ppm in assay [1] (setting [4]), in assay [1] (setting [5]), in assay [3] (setting [8]) and in assay [3] (setting [9]) was 80 to 100% throughout. In assay [2] (setting [6]), the pest or weed control at 1 µg/leaf is 80 to 100%.
As to `COc1ccnc(C(=O)N[C@H]2COC[C@H](OC3CCCCC3)[C@@H](O)[C@H](C)OC2=O)c1O` [Compound 74], the pest or weed control at 100 ppm in assay [1] (setting [4]), in assay [1] (setting [5]), in assay [3] (setting [8]) and in assay [3] (setting [9]) was 0 to 80% throughout. Also, the pest or weed control at 1 µg/leaf in assay [2] (setting [6]) and in assay [2] (setting [7]) was 0 to 80% throughout.
Take `COc1ccnc(C(=O)N[C@H]2COC[C@H](OCCCC(F)(F)F)[C@@H](OCCCC(F)(F)F)[C@H](C)OC2=O)c1O` [Compound 67]: the pest or weed control at 100 ppm in assay [1] (setting [4]) was in the range of 80 to 100%; in assay [1] (setting [5]), 0 to 80%; in assay [3] (setting [8]) it was 0 to 80%; in assay [3] (setting [9]) it was 0 to 80%. In addition, the pest or weed control at 1 µg/leaf in assay [2] (setting [6]) and in assay [2] (setting [7]) was 0 to 80% throughout.
For the molecule `COCCC(=O)Oc1c(OC)ccnc1C(=O)N[C@H]1COC[C@H](OCC(C)C)[C@@H](OCC(C)C)[C@H](C)OC1=O` [Compound 237, 2-(((3S,7S,8S,9S)-7,8-diisobutoxy-9-methyl-2-oxo-1,5-dioxonan-3-yl)carbamoyl)-4-methoxypyridin-3-yl 3-methoxypropanoate], the pest or weed control at 100 ppm in assay [1] (setting [4]), in assay [1] (setting [5]), in assay [3] (setting [8]) and in assay [3] (setting [9]) was 80 to 100% each time. The pest or weed control at 1 µg/leaf in assay [2] (setting [6]) and in assay [2] (setting [7]) was 80 to 100% in each case.
For `COc1ccnc(C(=O)N[C@H]2COC[C@H](OC3CCCCC3)[C@@H](OCC(C)C)[C@H](C)OC2=O)c1OCOC(C)=O` [Compound 76], the pest or weed control at 100 ppm in assay [1] (setting [4]), in assay [1] (setting [5]), in assay [3] (setting [8]) and in assay [3] (setting [9]) was 80 to 100% throughout. Moreover, the values for the pest or weed control at 1 µg/leaf in assay [2] (setting [6]) and in assay [2] (setting [7]) were 80 to 100% and 0 to 80%, respectively.
Turning to `CCCCCO[C@H]1[C@H](C)OC(=O)[C@@H](NC(=O)c2nccc(OC)c2OCOC(C)=O)COC[C@@H]1OCCCCC` [Compound 64], the pest or weed control at 100 ppm in assay [1] (setting [4]), in assay [1] (setting [5]), in assay [3] (setting [8]) and in assay [3] (setting [9]) was 80 to 100% throughout. Moreover, the pest or weed control at 1 µg/leaf in assay [2] (setting [6]) and in assay [2] (setting [7]) was 0 to 80% throughout.
